# Measurements published in patent US7792665B2, “Method for designing a compound based on the three dimensional structure of phosphoinositide dependent protein kinase 1 (PDK1)” (Medical Research Council, priority 2002, dated 2010).
# Where a chain is given by its changes, count along the chain named. Where a SMILES comes first, the peptide text is derived from it. [ ]: non-standard residue; d: D form. pT = C[C@@H](OP(=O)(O)O)[C@H](N)C(=O)O
# Columns and labels:
# [1] = target: T1, PDK1[T148A] (Homo sapiens, UniProt O15530, T148A); assay: PDK1 catalytic activity towards T308tide, activation by peptides, PDK1[T148A]; type: biochemical; parameters: made in house; conditions: T308tide substrate
# T1 sequence (O15530 1-556 T148A): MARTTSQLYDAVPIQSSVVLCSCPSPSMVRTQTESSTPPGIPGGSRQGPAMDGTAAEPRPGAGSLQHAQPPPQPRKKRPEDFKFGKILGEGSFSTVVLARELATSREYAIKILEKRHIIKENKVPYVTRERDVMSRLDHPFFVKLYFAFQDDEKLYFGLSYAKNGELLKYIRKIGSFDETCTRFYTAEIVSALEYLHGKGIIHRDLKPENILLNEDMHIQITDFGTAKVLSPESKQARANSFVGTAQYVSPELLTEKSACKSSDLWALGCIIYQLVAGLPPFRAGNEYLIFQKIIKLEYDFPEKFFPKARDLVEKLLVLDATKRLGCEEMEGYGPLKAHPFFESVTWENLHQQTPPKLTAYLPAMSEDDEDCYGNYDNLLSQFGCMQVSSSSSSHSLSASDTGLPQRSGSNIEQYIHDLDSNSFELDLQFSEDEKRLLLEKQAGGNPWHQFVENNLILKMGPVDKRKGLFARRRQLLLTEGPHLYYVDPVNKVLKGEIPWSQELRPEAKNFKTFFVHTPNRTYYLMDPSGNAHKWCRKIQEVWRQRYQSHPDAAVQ
# Description: C. Activation of the indicated forms of PDK1 by 56K-pHM and S6K-HM. PDK1 activity was measured using the peptide substrate (T308tide) in the presence of the indicated concentrations of 56K-pHM (closed circles) and S6K-HM (open circles) as described in the methods. Assays were performed in triplicate and similar results obtained in 2 separate experiments. The results are the average—SD for a single experiment.
# The ability of wild type and mutant PDK1 to phosphorylate the synthetic peptide T308tide ([…] ([Biondi et al., 2000]) (SEQ ID NO:108) was carried out in 30 μl assays containing 100 ng of wild type or mutant PDK1, 50 mM Tris/HCl pH 7.5, 0.1% 13-mercaptoethanol, 10 mM MgCl2, 100 μM [32γ P]ATP (200 cpm/pmol), 0.5 μM microcystin-LR, 1 mM T308tide in the presence or absence of the indicated concentrations of the 56K-pHM peptide ([…](P)YVAPSV) (SEQ ID NO:104) or 56K-HM. peptide ([…]) (SEQ ID NO:105). After incubation for 10 min at 30° C., 25 μl of the resultant mixture was spotted into P81 phosphocellulose paper (2×2 cm) and the papers washed and analysed as described previously for assays of MAP kinase. Control assays were carried out in parallel in which either PDK1, or peptide substrate were omitted; these values were always less than 5% of the activity measured in the presence of these reagents. […]
# [2] = target: T2, PDK1[K76A] (Homo sapiens, UniProt O15530, K76A); assay: Surface plasmon resonance (BiaCore) binding, PDK1[K76A]; conditions: relative to wild type PDK1
# T2 construct: made in house; host or cells: human embryonic kidney 293 cells (pEBG2T vector)
# T2 sequence (O15530 1-556 K76A): T1 sequence (O15530 1-556 T148A) with K76A, A148T
# Description: Binding and activation of wild type and mutant forms of PDK1 to a phosphopeptide derived from the hydrophobic motif of S6K1. The binding of the wild type (wt) PDK1 and indicated mutants to a phosphopeptide comprising the hydrophobic motif of S6K1 (S6K-pHM: […]*YVAPSV, where T* indicates phospho-threonine, SEQ ID NO:104) was analysed by surface plasmon resonance as described in the Materials and Methods.
# A. The sensor chip SA was coated with 12RUs of the biotinylated S6K-pHM peptide and the binding was analysed following injection of 270 nM wild type PDK1, PDK1 [T148A] and PDK1 [K76A]. […] (data not shown).
# B. As in A. except that binding was analysed over a range of PDK1 concentrations (2-2150 nM). The response level at the steady state binding is plotted versus the log of the PDK1 concentration. The estimated Kd was obtained by fitting the data to a sigmoid curve using Kaleidagraph software.
# Binding was analysed in a BiaCore 3000 system (BiaCore AB, Stevenage, UK). Biotinylated S6K-pHM (Biotin-C12-[…](P)YVAPSV) (SEQ ID NO:104) or the non-phosphorylated form of this peptide S6K-HM was bound to an streptavidin-coated Sensor chip (SA) (12 response units, RU). […] Steady state binding was determined at each concentration. Dissociation of PDK1 from the phospho-peptide was monitored over a 1 min period. […]
smiles,measurement,setting,value
CC(C)C[C@H](NC(=O)[C@H](Cc1ccccc1)NC(=O)[C@@H](NC(=O)[C@H](CCC(N)=O)NC(=O)[C@H](CC(N)=O)NC(=O)[C@H](C)NC(=O)[C@H](CO)NC(=O)[C@H](CCC(=O)O)NC(=O)[C@@H](N)CO)C(C)C)C(=O)NCC(=O)N[C@@H](Cc1ccccc1)C(=O)N[C@H](C(=O)N[C@@H](Cc1ccc(O)cc1)C(=O)N[C@H](C(=O)N[C@@H](C)C(=O)N1CCC[C@H]1C(=O)N[C@@H](CO)C(=O)N[C@H](C(=O)O)C(C)C)C(C)C)[C@@H](C)OP(=O)(O)O [S6K-pHM] (H-SESANQVFLGF[pT]YVAPSV-OH; N-terminus and C-terminus assumed),activation of PDK1[T148A],[1],activated similarly as wild type PDK1
same,lower affinity of PDK1[K76A] than wild type PDK1,[2],3 fold
